Source: patent US9980943B2, “Methods of treating muscular dystrophy” (BOARD OF REGENTS OF THE NEVADA SYSTEM OF HIGHER EDUCATION, …, priority 2013, dated 2018)

Assays:
Format in all cases: cell-based, mouse
[1] = tested on: α7 integrin (LacZ reporter in α7βgal+/− myoblasts); experiment: Myoblast α7+/LacZ integrin FDG assay (Burkin assay in myoblasts, 96-well); details: α7+/LacZ myoblasts, 96-well
[2] = tested on: α7 integrin (LacZ reporter in α7+/LacZ myotubes); experiment: Myotube α7 integrin FDG assay (Burkin assay in myotubes, 96-well); details: myotubes
[3] = tested on: β-galactosidase in CMV-LacZ C2C12 myoblasts; experiment: CMV-LacZ secondary screen in C2C12 myoblasts (β-Gal stabilizing assay); details: CMV-LacZ C2C12 myoblasts
How it was run: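 C2C12 myoblasts stably carrying a linearized CMV-driven LacZ construct, clone chosen by β-gal level in the myoblast FDG assay. Compounds tested in 96-well dose-response at 0.5, 1, 5, 10, 20 and 40 μM, N=2 replicates per point, to detect β-gal stabilization.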

[4] = tested on: β-galactosidase in CMV-LacZ C2C12 myotubes; experiment: CMV-LacZ secondary screen in C2C12 myotubes (β-Gal stabilizing assay); details: C2C12 CMV-LacZ myotubes, fold relative to DMSO
How it was run: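 CMV-LacZ C2C12 line (clonal, FDG-screened); myoblasts/myotubes dosed 0.5–40 μM (0.5, 1, 5, 10, 20, 40 μM); n=2 per point; β-gal stabilization read-out.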

SMILES | Burkin Assay in Myoblasts, signal relative to DMSO ([1]; 0.5 uM) | Burkin Assay in Myoblasts, signal relative to DMSO ([1]; 1 uM) | Burkin Assay in Myoblasts, signal relative to DMSO ([1]; 5 uM) | Burkin Assay in Myoblasts, signal relative to DMSO ([1]; 10 uM) | Burkin Assay in Myoblasts, signal relative to DMSO ([1]; 20 uM) | Burkin Assay in Myoblasts, signal relative to DMSO ([1]; 40 uM) | Burkin Assay in Myotubes, α7 integrin LacZ reporter signal relative to DMSO ([2]; 0.5 uM) | Burkin Assay in Myotubes, α7 integrin LacZ reporter signal relative to DMSO ([2]; 1 uM) | Burkin Assay in Myotubes, α7 integrin LacZ reporter signal relative to DMSO ([2]; 5 uM) | Burkin Assay in Myotubes, α7 integrin LacZ reporter signal relative to DMSO ([2]; 10 uM) | Burkin Assay in Myotubes, α7 integrin LacZ reporter signal relative to DMSO ([2]; 20 uM) | Burkin Assay in Myotubes, α7 integrin LacZ reporter signal relative to DMSO ([2]; 40 uM) | CMV-LACZ in Myoblasts (β-galactosidase activity relative to DMSO) ([3]; 0.5 uM) | CMV-LACZ in Myoblasts (β-galactosidase activity relative to DMSO) ([3]; 1 uM) | CMV-LACZ in Myoblasts (β-galactosidase activity relative to DMSO) ([3]; 5 uM) | CMV-LACZ in Myoblasts (β-galactosidase activity relative to DMSO) ([3]; 10 uM) | CMV-LACZ in Myoblasts (β-galactosidase activity relative to DMSO) ([3]; 20 uM) | CMV-LACZ in Myoblasts (β-galactosidase activity relative to DMSO) ([3]; 40 uM) | CMV-LACZ in Myotubes, signal relative to DMSO ([4]; 0.5 uM) | CMV-LACZ in Myotubes, signal relative to DMSO ([4]; 1 uM) | other results
O=C(CCc1ccccc1)c1nnc(-c2ccccc2)o1 [MLS001004364-01] | 1.0917 | 1.105 | 1.035 | 0.9531 | 0.9729 | 0.9374 | 1.093 | 1.105 | 0.9047 | 0.8617 | 0.8875 | 1.055 | 0.9117 | 1.0643 | 1.0438 | 0.9011 | 1.0263 | 1.0441 | 0.9210 | 1.0095 | CMV-LACZ in Myotubes, signal relative to DMSO ([4]; 5 uM): 0.8978; CMV-LACZ in Myotubes, signal relative to DMSO ([4]; 10 uM): 0.9480; CMV-LACZ in Myotubes, signal relative to DMSO ([4]; 20 uM): 1.2824; CMV-LACZ in Myotubes, signal relative to DMSO ([4]; 40 uM): 1.1824
COc1ccc(N=Nc2ccc(N)nc2N)cc1 [MLS000736846-01] | 1.218 | 1.2858 | 1.07 | 1.012 | 1.0406 | 0.9563 | 1.131 | 1.144 | 1.004 | 0.9396 | 0.8776 | 0.9673 | 1.1009 | 1.0386 | 1.0269 | 1.1101 | 1.3459 | 1.0174 | 0.8438 | 0.9714 | CMV-LACZ in Myotubes, signal relative to DMSO ([4]; 5 uM): 1.0250; CMV-LACZ in Myotubes, signal relative to DMSO ([4]; 10 uM): 1.1737; CMV-LACZ in Myotubes, signal relative to DMSO ([4]; 20 uM): 1.1000; CMV-LACZ in Myotubes, signal relative to DMSO ([4]; 40 uM): 1.2788
CCCC(=O)OCC(=O)c1[nH]c(C)c(C(C)=O)c1C [MLS001007892-01] | 1.127 | 1.037 | 1.016 | 1.23 | 0.7225 | 0.4983 | 0.9046 | 1.013 | 0.9742 | 1.075 | 0.8343 | 0.9888 | 0.9338 | 0.8108 | 1.0511 | 1.1495 | 0.6390 | 0.4953 | 1.1673 | 0.9291 | CMV-LACZ in Myotubes, signal relative to DMSO ([4]; 5 uM): 1.0066; CMV-LACZ in Myotubes, signal relative to DMSO ([4]; 10 uM): 0.9543; CMV-LACZ in Myotubes, signal relative to DMSO ([4]; 20 uM): 1.2170; CMV-LACZ in Myotubes, signal relative to DMSO ([4]; 40 uM): 1.0540
CC(=O)Nc1ccc(NC(=O)c2cc(=O)c3cc(C)cc(C)c3o2)cc1 [MLS001200396-01] | 0.8827 | 0.9245 | 0.5378 | 1.1321 | 0.4827 | 0.4794 | 0.9301 | 0.9487 | 0.9829 | 1.264 | 0.6408 | 0.7114 | 1.0489 | 0.9157 | 1.0212 | 1.2107 | 0.7252 | 0.9011 | 0.9137 | 0.8442 | CMV-LACZ in Myotubes, signal relative to DMSO ([4]; 5 uM): 0.8987; CMV-LACZ in Myotubes, signal relative to DMSO ([4]; 10 uM): 0.7738; CMV-LACZ in Myotubes, signal relative to DMSO ([4]; 20 uM): 0.9644; CMV-LACZ in Myotubes, signal relative to DMSO ([4]; 40 uM): 0.9733
O=C(CNC(=O)c1cccc(F)c1)N/N=C/c1cc(Br)ccc1OCc1ccccc1 [MLS000591667-01] | 0.9901 | 1.034 | 1.132 | 1.088 | 0.8623 | 1.1351 | 1.005 | 1.1434 | 1.072 | 0.9986 | 0.6781 | 0.6965 | 0.9491 | 0.7850 | 1.1587 | 1.1592 | 0.8030 | 1.0593 | 0.8600 | 1.0726 | CMV-LACZ in Myotubes, signal relative to DMSO ([4]; 5 uM): 1.0824; CMV-LACZ in Myotubes, signal relative to DMSO ([4]; 10 uM): 1.0152; CMV-LACZ in Myotubes, signal relative to DMSO ([4]; 20 uM): 0.8929; CMV-LACZ in Myotubes, signal relative to DMSO ([4]; 40 uM): 0.8800
